Results on one compound are retold here after patent US20100113530A1, “S1P LYASE INHIBITORS FOR THE TREATMENT OF CEREBRAL MALARIA” (priority 2008, published 2010).

In one test the test system is CD8+ T cells. In words: Cerebral malaria model: flow cytometry of tail vein blood for B and T cell levels. It is filed as in vivo, C56B1/6 mice. The following applies: first dose one day before infection, blood taken 24 h after first dose, FIG. 1. As to the method:
(§1) FIGS. 1 and 2 show results of an experiment using three groups of 10 female C56B1/6 mice. The mice in all three groups were infected with 1 million parasites (P. berghei ANKA) i.p. in 500 μl of media. The first group was the control group. The S1P lyase inhibitor (E)-1-(4-((1R,2S,3R)-1,2,3,4-tetrahydroxybutyl)-1H-imidazol-2-yl)-ethanone oxime was administered i.p. (100 mg/kg) to the mice in the second group, and was administered by gavage (100 mg/kg) to the mice in the third group. The drug was administered daily, and was first administered one day before infection.
(§2) Twenty four hours after the drug was first administered, tail vein blood was taken from the mice, and flow cytometry analysis was used to assess the levels of B and T cells, using antibodies to CD3, CD4, CD8 and CD19. The animals were monitored daily for body weight, hematocrit, and parasitaemia, and twice daily for survival.

The next test deals with P. berghei ANKA. The test is described as follows: Cerebral malaria model: survival of infected mice. The class given is in vivo, C56B1/6 mice. The settings on record: first dose one day before infection, FIG. 2. As to the method:
as §1, §2

On to `C/C(=N\O)c1nc([C@@H](O)[C@H](O)[C@H](O)CO)c[nH]1` [(E)-1-(4-((1R,2S,3R)-1,2,3,4-tetrahydroxybutyl)-1H-imidazol-2-yl)-ethanone oxime], for which the “CD8+ T cells as compared to untreated control group” value in the test on CD8+ T cells (gavage 100 mg/kg daily) and in the test on CD8+ T cells (i.p. 100 mg/kg daily) was “decreased CD8+ T cells” each time. Also, the “survival as compared to control group” value with P. berghei ANKA (gavage 100 mg/kg daily) and in the test with P. berghei ANKA (i.p. 100 mg/kg daily) was “lived significantly longer” throughout.
